This passage reports Activity results from ChEMBL document CHEMBL1149588, “Inhibition of colon cancer cell growth and antioxidant activity of bioactive compounds from Poncirus trifoliata (L.) Raf” (Bioorg Med Chem, 2007).

Activity calls are given as the source filed them. No cut-off for these calls is given here.

In data set [1] the test system is HT-29. The data set is described as follows: Induction of apoptosis in human HT29 cells at 5 uM. Type of data set: functional, cell-based.
The subject of data set [2] is HT-29. The data set is described as follows: Antiproliferative activity against human HT29 cells at 5 uM after 24 hrs by MTT assay. The format is functional, cell-based.
Data set [3] is described as follows: Growth inhibition of monkey COS1 cells at 0.63 uM after 48 hrs by MTT assay. The format is cell-based, Macaca mulatta. The conditions noted are these: rhesus monkey, cos-1, 48 h. A general note: Tetrazolium assays rely on reduction of a dye to a coloured formazan, in cell work by metabolically active cells.
A short description of data set [4]: Growth inhibition of monkey COS1 cells at 1.25 uM after 48 hrs by MTT assay. Type of data set: cell-based, Macaca mulatta. The conditions noted are these: rhesus monkey, cos-1, 48 h.
Data set [5] can be described thus: Growth inhibition of monkey COS1 cells at 2.5 uM after 48 hrs by MTT assay. The format is cell-based, Macaca mulatta. Conditions: rhesus monkey, cos-1, 48 h.
Data set [6] is described as follows: Growth inhibition of monkey COS1 cells at 5 uM after 48 hrs by MTT assay. Type of data set: cell-based, Macaca mulatta. The conditions noted are these: rhesus monkey, cos-1, 48 h.

Consider `CC[C@@]1(O)C(=O)OCc2c1cc1n(c2=O)Cc2cc3ccccc3nc2-1`, for which the outcome with HT-29 [1] was Active.

Turning to `CCC(CC[C@@H](C)[C@H]1CC[C@H]2[C@@H]3CC=C4C[C@@H](O)CC[C@]4(C)[C@H]3CC[C@]12C)C(C)C` (single isomer, unassigned) [BETA-SITOSTEROL], the result in the data set on HT-29 [2] and in the data set on HT-29 [1] was Active. Also, the Activity result in data set [3], in data set [4], in data set [5] and in data set [6] was “Non-toxic” throughout.

Consider `COC(=O)C(O)(CC(=O)O)CC(=O)O`, for which the outcome in the data set on HT-29 [2] and in the data set on HT-29 [1] was Active. The Activity entry in data set [3], in data set [4], in data set [5] and in data set [6] was “Non-toxic” throughout.
